Laboratory results published in patent publication US8293240B2, “Method of treating drug-resistant cancer” (The Regents of the University of Colorado, priority 2004, dated 2012).

Legend:
[1] = system: drug resistant L1210/DDP cells; assay: cell-surface Fas expression by flow cytometry, L1210/DDP; type: cell-based
Method: Cell Surface Staining. Non-permeabilized cells were stained with antibodies to the cell surface receptors Fas (CD95) (Pharmingen) or with antibodies to uncoupling proteins (anti-UCP2 antibody) (Alpha Diagnostic International). Antibodies for both the isotype control and actual stain were added to the cell suspension, mixed, and then placed on ice for and incubation of 25 minutes in the dark. Subsequently the cells were centrifuged at 300×g for 5 minutes and the supernatant removed. The cells were washed one time with 100 μL of PBS/2.5% FBS and then transferred into flow cyotmetric tubes containing 500 μL of PBS/2.5% FBS for analysis.
Geometric Mean Fluorescence. When analyzing data on Cell Quest software, a geometric mean value will be given for each histogram plotted. Once the stained sample was plotted against the control (isotype or unstained), geometric mean fluorescence values were obtained for both histogram peaks. The stained control sample value was subtracted from sample to identify the actual fluorescence of the stained sample over that of the control.
Drug sensitive L1210 cells and drug resistant L1210/DDP cells were cultured with etomoxir for 24 hours (Tx indicates treatment with etomoxir). The level of cell-surface Fas was determined using fluorochrome conjugated anti-Fas antibodies and flow cytometry. The Fas levels are measured relative to a control for staining artifacts. […]

B16F1 melanoma cells [2] = assay: intracellular reactive intermediates (DCFDA) in B16F1 melanoma cells; type: cell-based, mouse; conditions: B16F1, 48 hours, FIG. 19
Method: (§1) Metabolic Activity Assay. Cells were prepared as previously described. The specific metabolic dye was added and mixed into the cell suspension. This plate was then placed into the 37° incubator for a 20-minute incubation. After incubation, the cells were centrifuged at 300×g for 5 minutes, and the supernatant was removed. The cells were then washed once with PBS/2.5% FBS and transferred into flow cytometric tubes containing 500 μL of PBS/2.5% FBS for analysis.
5-(and -6)-Chloromethyl-2′,7′-dichlorodihydrofluorescein diacetate (CMH2DCFDA) (Molecular Probes). One vial of DCFda provides 10 tests and contains 50 μg. This is unstable and can't be stored. Therefore, each vial was opened and 43 μL of DMSO was added. […]
(§2) B16F1 melanoma cells were cultured at a concentration of 0.5 to 1 million cells per ml. Cells were harvested and analyzed by flow cytometry. […] Five thousand cells were assessed for forward scatter (FS), as a function of cell size, versus side scatter (SS), as a function of cellular granularity. […]
(§3) B16F1 melanoma cells of Example 12 were untreated or treated with etomoxir at the indicated concentrations for 48 hours. Cells were harvested, stained with DCFDA as described in Materials and Methods, and analyzed by flow cytometry. The value of DCFDA was then calculated as described in Materials and Methods.

B16F1 melanoma cells [3] = assay: mitochondrial membrane potential (Mitotracker Red) in B16F1 melanoma cells; type: cell-based, mouse; conditions: B16F1, 48 hours, FIG. 20
Method: as §1
MitoTracker Red CM-H2XROS (Molecular Probes). One vial of MitoTracker Red provides 10 tests and contains 50 μg. This is unstable and can't be stored. Therefore, when each vial was opened, 43 μL of Dimethysulfoxide (DMSO) were added. […]
as §2
as §3, with “with Mitotracker Red (Molecular Probes)” for “with DCFDA”, “of Mitotracker Red” for “of DCFDA”

[4] = system: HL60 MDR human leukemia cells; assay: percent death of HL60 MDR cells (flow cytometry, live versus dead); type: cell-based
Method: Dot plots as a function of live versus dead cells. The cells were cultured at a concentration of 0.5 to 1 million cells per ml. Cells were untreated or treated with or 2-deoxy-D-glucose and/or etomoxir and/or antibodies to UCP2 and used at dilutions or concentrations as indicated on the figure. The cells were cultured in the presence or absence of etomoxir at 100 micrograms/ml for 24 hours followed by treatment with antibody as indicated for an additional 24 or 48 hours (i.e. totals of 48 hours or 72 hours respectively). Cells were harvested and analyzed by flow cytometry. Each dot on the dot plot represents one cell. Five thousand cells were assessed for forward scatter (FS), as a function of cell size, versus side scatter (SS), as a function of cellular granularity. The upper elipse represents live cells by these criterion and the lower elipse in each dot plot represents the dead cells.
Statistical Analysis, Percents, and Geometric Mean Values Percents. Gating is a tool provided by Cell Quest software and allows for the analysis of a certain population of cells. Gating around both the live and dead cell populations gave a percent of the cell numbers that was in each population. After the gates were drawn, a percent value of dead cells was calculated by taking the number of dead cells divided by the number of total cells and multiplying by one hundred.
HL60 MDR human leukemia cells were cultured as described above under “Materials and Methods”. Cells were untreated or treated with etomoxir, with 2-deoxy-D-glucose, or with a combination of etomoxir and 2-deoxy-D-glucose, at concentrations indicated in FIG. 27 for 24 hours. Cells were harvested and analyzed by flow cytometry.
Referring to FIGS. 31 and 32, HL60 MDR cells, cultured as described in Example 21, were untreated or treated with etomoxir, with 2-deoxy-D-glucose, or with a combination of etomoxir and 2-deoxy-D-glucose, at concentrations indicated in FIG. 31 for 48 hours. Cells were harvested and analyzed by flow cytometry.
Referring to FIGS. 35 and 36, HL60 MDR cells, cultured as described in Example 21, were treated with anti-UCP2 antibody and otherwise untreated or treated simultaneously with etomoxir, 2-deoxy-D-glucose, or both, at concentrations indicated in FIG. 35 for 48 hours. Cells were harvested and analyzed by flow cytometry.

[5] = system: human leukemia HL60 cells; assay: DCFDA staining, HL60; type: cell-based; conditions: HL60, 24 hours of incubation, FIG. 14
Method: Flow Cytometry. Cells were harvested, counted, and resuspended at 10^6 cells/100 μl of PBS containing 2.5% fetal calf serum in preparation for flow cytometric analysis. Cells were stained for intracellular H202 using 6-carboxy-2′,7′-dichlorodihydrofluorescein diacetate (DCF-DA, Molecular Probes, Eugene, Oreg.). Briefly, cells were incubated at 37° with 1 mM DCF-DA for 20 minutes, washed twice in PBS containing 2.5% fetal calf serum and analyzed flow cytometrically. Mitochondrial membrane potential was assessed using Mitotracker Red (CM-H2XROS, Molecular Probes, Eugene, Oreg.). The cells were resuspended in PBS containing 2.5% fetal calf serum containing a final concentration of 0.5 micromolar Mitotracker dye. The cells were incubated at 37° for 20 minutes, washed twice in PBS containing 2.5% fetal calf serum and analyzed flow cytometrically. Data were acquired on a Coulter Elite Epics or Excel flow cytometer (Coulter, Hialeah, Fla.) and analyzed with CellQuest software, (Becton Dickinson, San Jose, Calif.). […] Each sample population was classified for cell size (forward scatter) and complexity (side scatter), gated on a population of interest and evaluated using 5,000 cells. […]
The effects of etomoxir on human leukemia HL60 cells was determined. […]

## CCOC(=O)C1(CCCCCCOc2ccc(Cl)cc2)CO1 (stereo not shown) [etomoxir, 2-(6-(4-chlorophenoxy)-hexyl)-oxirane-2-carboxylic acid ethyl ester]
[1]; L1210/DDP, cultured with etomoxir for 24 hours
  cell-surface Fas expression: significant increases in cell surface Fas
[1]; methotrexate-treated L1210 DDP, FIG. 8
  cell surface Fas, combination with methotrexate: promotes increases in cell surface Fas
B16F1 melanoma cells [2]
  reactive oxygen species as measured by DCFDA: dose dependent increase
B16F1 melanoma cells [3]
  mitochondrial membrane potential as measured by Mitotracker Red: increase in mitochondrial membrane potential
[4]; HL60 MDR cells after 24 hours
  percent of cell deaths: 11%
[4]; HL60 MDR cells after 48 hours
  percent of cell deaths: 14%
[5]
  reactive oxygen intermediates, DCFDA staining: increases in reactive oxygen intermediates
